Assay results taken from ChEMBL document CHEMBL1201862, “PubChem BioAssay data set” (2004).
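Growth conditions: 96-well plates. Treatment: test compound, 48 hours, 5 concentrations. Analysis: linear interpolation between bracketing concentrations; unreached endpoints set to highest concentration. At the GI50, growth is halved.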 Calls of active or inactive are those of the source. Rule as the data show it: active = GI50 up to about 1.1 µM and inactive = higher.

Experiments:
Assay in all cases: NCI anticancer screen, dose series, 48 h
786-0 = tested on: 786-0
A498 = tested on: A498
A549 = tested on: A549
ACHN = tested on: ACHN
BT-549 = tested on: BT-549
CAKI-1 = tested on: CAKI-1
CCRF-CEM = tested on: CCRF-CEM
COLO 205 = tested on: COLO 205
DU-145 = tested on: DU-145
EKVX = tested on: EKVX
HCT-116 = tested on: HCT-116
HCT-15 = tested on: HCT-15
HL-60 = tested on: HL-60
HOP-62 = tested on: HOP-62
HOP-92 = tested on: HOP-92
HT-29 = tested on: HT-29
Hs-578T = tested on: Hs-578T
IGROV-1 = tested on: IGROV-1
K562 = tested on: K562
KM12 = tested on: KM12
LOX IMVI = tested on: LOX IMVI
M14 = tested on: M14
MCF7 = tested on: MCF7
MDA-MB-231 = tested on: MDA-MB-231
MDA-MB-435 = tested on: MDA-MB-435
MDA-N = tested on: MDA-N
MOLT-4 = tested on: MOLT-4
Malme-3M = tested on: Malme-3M
NCI-H226 = tested on: NCI-H226
NCI-H23 = tested on: NCI-H23
NCI-H460 = tested on: NCI-H460
NCI-H522 = tested on: NCI-H522
NCI/ADR-RES = tested on: NCI/ADR-RES
OVCAR-3 = tested on: OVCAR-3
OVCAR-4 = tested on: OVCAR-4
OVCAR-5 = tested on: OVCAR-5
OVCAR-8 = tested on: OVCAR-8
PC-3 = tested on: PC-3
RPMI-8226 = tested on: RPMI-8226
RXF 393 = tested on: RXF 393
SF-268 = tested on: SF-268
SF-295 = tested on: SF-295
SF-539 = tested on: SF-539
SK-MEL-28 = tested on: SK-MEL-28
SK-MEL-2 = tested on: SK-MEL-2
SK-MEL-5 = tested on: SK-MEL-5
SK-OV-3 = tested on: SK-OV-3
SN12C = tested on: SN12C
SNB-19 = tested on: SNB-19
SNB-75 = tested on: SNB-75
SR = tested on: SR
SW-620 = tested on: SW-620
T47D = tested on: T47D
TK-10 = tested on: TK-10
U-251 = tested on: U-251
UACC-257 = tested on: UACC-257
UO-31 = tested on: UO-31
UACC-62 = tested on: UACC-62

Structure (SMILES): CC(N/N=N/c1ccc(-c2nc3ccccc3[nH]2)cc1)C(=O)O (stereo not drawn)
- GI50 (786-0): 15.7 µM (inactive)
- GI50 (A498): > 100 µM (inactive)
- GI50 (A549): 33 µM (inactive)
- GI50 (ACHN): 40.3 µM (inactive)
- GI50 (BT-549): 3.73 µM (inactive)
- GI50 (CAKI-1): 42.7 µM (inactive)
- GI50 (CCRF-CEM): 3.18 µM (inactive)
- GI50 (COLO 205): 25.9 µM (inactive)
- GI50 (DU-145): 49.4 µM (inactive)
- GI50 (EKVX): 31.8 µM (inactive)
- GI50 (HCT-116): 28.9 µM (inactive)
- GI50 (HCT-15): 9.57 µM
- GI50 (HL-60): 32.6 µM (inactive)
- GI50 (HOP-62): 45.2 µM (inactive)
- GI50 (HOP-92): > 100 µM (inactive)
- GI50 (HT-29): 29.5 µM (inactive)
- GI50 (Hs-578T): 33.7 µM (inactive)
- GI50 (IGROV-1): 12.9 µM (inactive)
- GI50 (K562): 7.16 µM (inactive)
- GI50 (KM12): 19.2 µM (inactive)
- GI50 (LOX IMVI): 28.2 µM (inactive)
- GI50 (M14): 35.1 µM (inactive)
- GI50 (MCF7): 4.21 µM (inactive)
- GI50 (MDA-MB-231): 33.7 µM (inactive)
- GI50 (MDA-MB-435): 32.7 µM (inactive)
- GI50 (MDA-N): 27.5 µM (inactive)
- GI50 (MOLT-4): 5.01 µM (inactive)
- GI50 (Malme-3M): 26.3 µM (inactive)
- GI50 (NCI-H226): > 100 µM (inactive)
- GI50 (NCI-H23): 62.2 µM (inactive)
- GI50 (NCI-H460): 17.5 µM (inactive)
- GI50 (NCI-H522): 23.3 µM (inactive)
- GI50 (NCI/ADR-RES): 7.94 µM (inactive)
- GI50 (OVCAR-3): 18.6 µM (inactive)
- GI50 (OVCAR-4): 37.6 µM (inactive)
- GI50 (OVCAR-5): > 100 µM (inactive)
- GI50 (OVCAR-8): 22.2 µM (inactive)
- GI50 (PC-3): 25.6 µM (inactive)
- GI50 (RPMI-8226): 1.91 µM (inactive)
- GI50 (RXF 393): 34.1 µM (inactive)
- GI50 (SF-268): 32.7 µM (inactive)
- GI50 (SF-295): 19.6 µM (inactive)
- GI50 (SF-539): 55 µM (inactive)
- GI50 (SK-MEL-28): > 100 µM (inactive)
- GI50 (SK-MEL-2): 59.3 µM (inactive)
- GI50 (SK-MEL-5): 18.8 µM (inactive)
- GI50 (SK-OV-3): > 100 µM (inactive)
- GI50 (SN12C): 36.3 µM (inactive)
- GI50 (SNB-19): > 100 µM (inactive)
- GI50 (SNB-75): > 100 µM (inactive)
- GI50 (SR): 2.4 µM (inactive)
- GI50 (SW-620): 29.8 µM (inactive)
- GI50 (T47D): 16.3 µM (inactive)
- GI50 (TK-10): 81.7 µM (inactive)
- GI50 (U-251): 18.1 µM (inactive)
- GI50 (UACC-257): > 100 µM (inactive)
- GI50 (UO-31): 39.1 µM (inactive)

Structure (SMILES): O=c1cc(N2CCOCC2)oc2c(-c3ccccc3)cccc12 [LY-294002]
- GI50 (786-0): 9.68 µM (inactive)
- GI50 (A498): 2.48 µM (inactive)
- GI50 (A549): 4.79 µM (inactive)
- GI50 (ACHN): 7.45 µM (inactive)
- GI50 (BT-549): 5.7 µM (inactive)
- GI50 (CAKI-1): 2.39 µM (inactive)
- GI50 (CCRF-CEM): 39.1 µM (inactive)
- GI50 (COLO 205): 13.5 µM (inactive)
- GI50 (DU-145): 12.4 µM (inactive)
- GI50 (EKVX): 3.49 µM (inactive)
- GI50 (HCT-116): 12.6 µM (inactive)
- GI50 (HCT-15): 7.91 µM
- GI50 (HL-60): 14.7 µM (inactive)
- GI50 (HOP-62): 4.59 µM (inactive)
- GI50 (HOP-92): 9.04 µM (inactive)
- GI50 (HT-29): 6.25 µM (inactive)
- GI50 (Hs-578T): 1.9 µM (inactive)
- GI50 (IGROV-1): 2.49 µM (inactive)
- GI50 (K562): 14.2 µM (inactive)
- GI50 (KM12): 12.1 µM (inactive)
- GI50 (LOX IMVI): 3.72 µM (inactive)
- GI50 (M14): 11.1 µM (inactive)
- GI50 (MCF7): 3.09 µM (inactive)
- GI50 (MDA-MB-231): 3.13 µM (inactive)
- GI50 (MDA-MB-435): 7.8 µM (inactive)
- GI50 (MDA-N): 11.8 µM (inactive)
- GI50 (MOLT-4): 11.4 µM (inactive)
- GI50 (Malme-3M): 0.286 µM (active)
- GI50 (NCI-H226): 3.93 µM (inactive)
- GI50 (NCI-H23): 3.76 µM (inactive)
- GI50 (NCI-H460): 11.4 µM (inactive)
- GI50 (NCI-H522): 2.21 µM (inactive)
- GI50 (NCI/ADR-RES): 4.76 µM (inactive)
- GI50 (OVCAR-3): 7.16 µM (inactive)
- GI50 (OVCAR-4): 2.7 µM (inactive)
- GI50 (OVCAR-5): 12.1 µM (inactive)
- GI50 (OVCAR-8): 4.58 µM (inactive)
- GI50 (PC-3): 2.34 µM (inactive)
- GI50 (RPMI-8226): 2.96 µM (inactive)
- GI50 (RXF 393): 2.77 µM (inactive)
- GI50 (SF-268): 2.28 µM (inactive)
- GI50 (SF-295): 6.53 µM (inactive)
- GI50 (SF-539): 7.98 µM (inactive)
- GI50 (SK-MEL-28): 16.9 µM (inactive)
- GI50 (SK-MEL-2): 9.93 µM (inactive)
- GI50 (SK-OV-3): 14.2 µM (inactive)
- GI50 (SN12C): 5.36 µM (inactive)
- GI50 (SNB-19): 14.6 µM (inactive)
- GI50 (SNB-75): 1.11 µM (active)
- GI50 (SR): 3.36 µM (inactive)
- GI50 (SW-620): 21.7 µM (inactive)
- GI50 (T47D): 2.49 µM (inactive)
- GI50 (TK-10): 23.7 µM (inactive)
- GI50 (U-251): 19.5 µM (inactive)
- GI50 (UACC-257): 14.5 µM (inactive)
- GI50 (UACC-62): 3.79 µM (inactive)
- GI50 (UO-31): 15.8 µM (inactive)

Structure (SMILES): CCC1c2[nH]c3ccccc3c2C[C@H]2C(=O)NC(CCC(=O)OC(C)(C)C)C(=O)N12 (stereo partly drawn)
- GI50 (786-0): 56.6 µM (inactive)
- GI50 (A498): 89.7 µM (inactive)
- GI50 (A549): 43 µM (inactive)
- GI50 (ACHN): 47.4 µM (inactive)
- GI50 (BT-549): 53.3 µM (inactive)
- GI50 (CAKI-1): > 100 µM (inactive)
- GI50 (COLO 205): 32.4 µM (inactive)
- GI50 (DU-145): > 100 µM (inactive)
- GI50 (EKVX): 42.6 µM (inactive)
- GI50 (HCT-116): 43.3 µM (inactive)
- GI50 (HCT-15): 52 µM
- GI50 (HL-60): 34 µM (inactive)
- GI50 (HOP-62): 78.5 µM (inactive)
- GI50 (HOP-92): 30.6 µM (inactive)
- GI50 (HT-29): 34 µM (inactive)
- GI50 (Hs-578T): 32.7 µM (inactive)
- GI50 (IGROV-1): 53.8 µM (inactive)
- GI50 (K562): 53.6 µM (inactive)
- GI50 (KM12): 35.1 µM (inactive)
- GI50 (LOX IMVI): 51.4 µM (inactive)
- GI50 (M14): 42.5 µM (inactive)
- GI50 (MCF7): 42.4 µM (inactive)
- GI50 (MDA-MB-231): 66.4 µM (inactive)
- GI50 (MDA-MB-435): 49.5 µM (inactive)
- GI50 (MDA-N): 51.5 µM (inactive)
- GI50 (MOLT-4): 35.3 µM (inactive)
- GI50 (Malme-3M): 12.6 µM (inactive)
- GI50 (NCI-H226): > 100 µM (inactive)
- GI50 (NCI-H23): 68.7 µM (inactive)
- GI50 (NCI-H522): 29.6 µM (inactive)
- GI50 (NCI/ADR-RES): 62.5 µM (inactive)
- GI50 (OVCAR-3): 22.4 µM (inactive)
- GI50 (OVCAR-4): 41.4 µM (inactive)
- GI50 (OVCAR-5): 62.1 µM (inactive)
- GI50 (OVCAR-8): 48.4 µM (inactive)
- GI50 (PC-3): 33.7 µM (inactive)
- GI50 (RPMI-8226): 31.6 µM (inactive)
- GI50 (RXF 393): 52.7 µM (inactive)
- GI50 (SF-268): 37.4 µM (inactive)
- GI50 (SF-295): 42.3 µM (inactive)
- GI50 (SK-MEL-28): 73.5 µM (inactive)
- GI50 (SK-MEL-2): 60.8 µM (inactive)
- GI50 (SK-MEL-5): 39.4 µM (inactive)
- GI50 (SK-OV-3): 63.5 µM (inactive)
- GI50 (SN12C): 39.4 µM (inactive)
- GI50 (SNB-19): 73.5 µM (inactive)
- GI50 (SR): 41.7 µM (inactive)
- GI50 (SW-620): 67.3 µM (inactive)
- GI50 (T47D): 40.6 µM (inactive)
- GI50 (TK-10): 42.6 µM (inactive)
- GI50 (U-251): 56.6 µM (inactive)
- GI50 (UACC-257): 40.2 µM (inactive)
- GI50 (UACC-62): 66.5 µM (inactive)
- GI50 (UO-31): 46.9 µM (inactive)
